Measured values from US20050153985A1, “Methods of treating acute inflammation in animals with p38 map kinase inhibitors” (priority 2003, published 2005).
Entries after “also recorded” stand apart in the source; their conditions may differ.

Tested on: E. coli (MacDonald 487) induced mastitis
Experiment: E. coli induced mastitis in lactating cows, treatment 13 hours after intramammary challenge
Type: in vivo, lactating Holstein cows
Conditions: 10 mg/kg IV; for mean E. coli colony counts in milk after treatment: 11-168 hours, FIG. 10; for mean E. coli colony counts in milk after treatment / milk somatic cell count (SCC) / mean whey PGE2 levels after treatment: compared to infected; for mean E. coli colony counts in milk after treatment / milk clinical scores / gland clinical scores: non-medicated controls; for whey PGE2 levels at 11 hours after treatment: relative to level at time 0; for milk produced during the 13 days after treatment: based on mean daily milk production values from FIG. 2, infected, non-medicated cow 365 lbs; for cumulative clinical scores: compared to controls, FIG. 5; for milk production loss associated with mastitis following treatment: compared to infected cows treated with vehicle, FIG. 2; for milk somatic cell count (SCC) / mean whey PGE2 levels after treatment: non-medicated control cows; for milk somatic cell count (SCC): FIG. 6; for mean whey PGE2 levels after treatment: FIG. 9; for milk produced during the 13 days after treatment compared with infected, non-medicated cow: comparison in words; for total WBC numbers (peripheral blood) / total PMN numbers (peripheral blood): data analyzed for 0-72 hours, vs controls; for total WBC numbers (peripheral blood): FIG. 7; for total PMN numbers (peripheral blood): FIG. 8; for milk clinical scores / gland clinical scores: vs infected; for milk clinical scores: FIG. 3; for gland clinical scores: FIG. 4
Source text: Thirty-three lactating Holstein cows were randomly allotted to 5 treatment groups blocked by milk production and days in milk. Milk and blood samples and temperature data were collected at the morning milking on day −1. One normal quarter was selected from each cow based on clinical scores and California Mastitis Test (CMT) results performed at morning milking on day −1. After the evening milking on […], selected quarters were infused with approximately 30 cfu of E. coli (MacDonald 487). Milk and blood samples and temperature data were collected prior to treatment at the morning milking on day 0. Cows were treated after the morning milking on day 0 according to the study design. After treatment, milk and blood samples and temperature data were collected at 11, 24, 35, 48, 72, 144, 168, 192, and 216 hours. Clinical scores of infused quarters and milk production were assessed at each milking. Milk samples were analyzed for culture (E. coli), SCC, TNF-α and PGE2 and blood leukograms were determined. [table] Assessment of test article efficacy was determined based upon a comparison of the treatment effect on each variable versus the challenged, non-medicated group. Data were analyzed using the MIXED procedure of PC-SAS version 6.12. The model included treatment, time and their interaction. Covariance within cows across time was modeled using the Repeated statement analysis with a […] covariance structure to account for unequally spaced sampling times. Tests for significance (P≦0.10) were based upon the main treatment effect compared with the challenged, non-medicated group. The P value of ≦0.10 was selected based on the number of animals per treatment group and the conservative nature of the SAS procedure. […] In all, 27 of 27 quarters challenged developed clinical mastitis.

SMILES	mean E. coli colony counts in milk after treatment	whey PGE2 levels at 11 hours after treatment	milk produced during the 13 days after treatment [lbs]	cumulative clinical scores	milk production loss associated with mastitis following treatment	milk somatic cell count (SCC)	mean whey PGE2 levels after treatment	milk produced during the 13 days after treatment compared with infected, non-medicated cow	total WBC numbers (peripheral blood)	total PMN numbers (peripheral blood)	milk clinical scores	gland clinical scores
Nc1nccc(-c2c(-c3ccc(F)cc3)ncn2C2CCNCC2)n1 [MAPKi #1]	significantly decreased; also recorded: Significant improvement	decline	847	significantly lower; also recorded: Significant improvement	significantly less milk production loss; also recorded: Significant improvement	trend towards lower SCC	significant reduction; also recorded: Significant improvement	more than twice as much milk	returned to pre-challenge levels significantly faster; also recorded: Significant improvement	returned to pre-challenge levels significantly faster	significantly improved; also recorded: Significant improvement	Significantly improved; also recorded: Significant improvement
CC(C)n1c(=O)n(C)c2cc(-c3[nH]c(-c4cnccn4)nc3-c3ccc(F)cc3)ccc21 [MAPKi #2]	decline in milk E. coli numbers compared to controls but the difference was not significant; also recorded: reduced	remained at the same level	689	significantly lower; also recorded: Significant reductions			significant reduction	produced more milk than control cows	returned to pre-challenge levels significantly faster	returned to pre-challenge levels significantly faster	significantly improved; also recorded: Significant reductions	Significantly improved; also recorded: Significant reductions
CC(=O)Nc1nc(-c2cccc(C)c2)c(-c2ccc3c(c2)n(C)c(=O)n3CC(C)C)[nH]1 [MAPKi #3]	did not show a decline	continue to rise	366		no trend for improved	trend towards lower SCC	significant reduction; also recorded: significantly reduced	produced the same amount of milk as infected, non-medicated control cows			no trend for improved	Significantly improved
